The record followed here is patent US8946200B2, “Pharmaceutically active nanosuspensions” (Southwest Research Institute, priority 2006, dated 2015).

A short description of data set [1]: Particle size distribution of the nanoparticle suspension (Beckman Coulter PCS Submicron Particle Size Analyzer). Format: physicochemical. The settings on record: suspension of TCO in PBS pH 7.4, 0.5 mg/mL (FIG. 1). The protocol:
The particle size of the pharmaceutically active compound in the nanosuspension may be in the range of 100 nm to 1000 nm, including all values and increments therein, such as in the range of 250 nm to 1,000 nm, etc. Illustrated in FIG. 1 is an exemplary embodiment of a numerical particle size distribution of suspension of TCO in PBS having a pH of 7.4 and at a concentration of 0.5 mg/mL. […] In addition, the highest relative number percent of particles fall in the range of about 450-525 nm. Such particle size determination may be accomplished on a Beckman Coulter PCS Submicron Particle Size Analyzer. Accordingly, a nanosuspension herein may be understood as any liquid medium containing pharmaceutically active compounds having particles with a size of less than or equal to about 1000 nm.
(§1) A solution of TCO (1 mg) in hexafluoroisopropanol (HFIP) (0.5 mL) was prepared and added slowly into a magnetically stirred into phosphate buffered saline (PBS) (2 mL) having a pH of 7.4. The mixture was stirred uncovered in a fume hood for up to 24 hours. FIG. 1 illustrates the particle size distribution of suspension of TCO in pH 7.4 PBS at 0.5 mg/mL concentration. […] The clear nanoparticle suspension was further concentrated in a vacuum oven to about 1.5 mg/mL.

Data set [2] is described as follows: Concentration of the nanosuspension and appearance / physical stability. In kind it is physicochemical. On the procedure:
as §1
A solution of TCO (1 mg) in hexafluoroisopropanol (0.5 mL) was prepared and added slowly into a magnetically stirred deionized water (2 mL). The mixture was stirred uncovered in a fume hood for 3 hours and further concentrated in a vacuum oven. The nanoparticle suspension in deionized water, however, could only be concentrated to about 0.6 mg/mL of concentration before growing micron-sized crystals.

As for triamcinolone [TCO], in data set [1], the “particle size range with the highest relative number percent of particles” value was 450-525 nm. Besides, the appearance of nanosuspension result in data set [2] (1.0 mg/ML, precipitating 2 mg/0.5 mL TCO/HFIP into 2 mL PBS) is recorded as “cloudy solution”. The “concentration to which the clear nanoparticle suspension was further concentrated” value in data set [2] (PBS pH 7.4, 1 mg TCO/0.5 mL HFIP into 2 mL PBS, vacuum oven) was “about 1.5 mg/mL”. For the same substance, the “concentration reached before growing micron-sized crystals” value in data set [2] (deionized water, 1 mg TCO/0.5 mL HFIP into 2 mL water, vacuum oven) was “about 0.6 mg/mL”.
